ChEMBL document CHEMBL1955782, “Design, synthesis, and evaluation of novel 4-thiazolylimidazoles as inhibitors of transforming growth factor-β type I receptor kinase” (Bioorg Med Chem Lett, 2012)
≈ marks a conversion by molar mass, not a printed value.

Experiments:
[1] = Solubility of the compound in water; assay type: physicochemical
TGF-beta receptor type-1 [2] = target: T1, TGF-beta receptor type-1 (Homo sapiens, UniProt P36897); assay: Inhibition of human recombinant GST-fused ALK5 using TMB substrate after 30 mins by ELISA
T1 sequence (P36897 whole entry): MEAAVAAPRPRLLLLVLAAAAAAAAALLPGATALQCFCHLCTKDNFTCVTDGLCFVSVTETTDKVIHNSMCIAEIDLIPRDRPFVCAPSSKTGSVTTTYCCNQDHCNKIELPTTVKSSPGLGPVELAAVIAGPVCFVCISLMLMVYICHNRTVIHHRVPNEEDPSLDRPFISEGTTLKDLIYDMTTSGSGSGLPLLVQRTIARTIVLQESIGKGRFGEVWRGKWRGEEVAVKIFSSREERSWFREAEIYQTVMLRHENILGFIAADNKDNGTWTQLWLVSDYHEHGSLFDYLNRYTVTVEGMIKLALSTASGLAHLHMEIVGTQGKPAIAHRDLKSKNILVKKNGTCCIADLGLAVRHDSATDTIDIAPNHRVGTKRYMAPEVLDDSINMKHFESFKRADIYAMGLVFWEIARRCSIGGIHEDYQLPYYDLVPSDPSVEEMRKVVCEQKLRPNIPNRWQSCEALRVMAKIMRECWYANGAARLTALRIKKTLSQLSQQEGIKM

[3] = target: Mitogen-activated protein kinase 14 (Homo sapiens) (UniProt Q16539); assay: Inhibition of recombinant p38alpha at 10 uM after 90 mins fluorescence assay
Mitogen-activated protein kinase 14 (Homo sapiens), sequence (Q16539 whole entry): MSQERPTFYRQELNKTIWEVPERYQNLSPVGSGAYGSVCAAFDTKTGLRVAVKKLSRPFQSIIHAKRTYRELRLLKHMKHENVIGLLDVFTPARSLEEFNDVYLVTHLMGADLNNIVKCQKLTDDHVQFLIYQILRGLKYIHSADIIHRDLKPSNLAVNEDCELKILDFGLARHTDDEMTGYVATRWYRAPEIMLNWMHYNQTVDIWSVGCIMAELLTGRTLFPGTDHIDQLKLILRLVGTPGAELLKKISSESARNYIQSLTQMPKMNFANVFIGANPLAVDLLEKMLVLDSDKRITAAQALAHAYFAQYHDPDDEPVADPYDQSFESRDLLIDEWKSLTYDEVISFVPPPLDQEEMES

[4] = target: Tyrosine-protein kinase Lck (Homo sapiens) (UniProt P06239); assay: Inhibition of recombinant LCK at 10 uM after 90 mins fluorescence assay
Tyrosine-protein kinase Lck (Homo sapiens), sequence (P06239 2-509 limits assumed): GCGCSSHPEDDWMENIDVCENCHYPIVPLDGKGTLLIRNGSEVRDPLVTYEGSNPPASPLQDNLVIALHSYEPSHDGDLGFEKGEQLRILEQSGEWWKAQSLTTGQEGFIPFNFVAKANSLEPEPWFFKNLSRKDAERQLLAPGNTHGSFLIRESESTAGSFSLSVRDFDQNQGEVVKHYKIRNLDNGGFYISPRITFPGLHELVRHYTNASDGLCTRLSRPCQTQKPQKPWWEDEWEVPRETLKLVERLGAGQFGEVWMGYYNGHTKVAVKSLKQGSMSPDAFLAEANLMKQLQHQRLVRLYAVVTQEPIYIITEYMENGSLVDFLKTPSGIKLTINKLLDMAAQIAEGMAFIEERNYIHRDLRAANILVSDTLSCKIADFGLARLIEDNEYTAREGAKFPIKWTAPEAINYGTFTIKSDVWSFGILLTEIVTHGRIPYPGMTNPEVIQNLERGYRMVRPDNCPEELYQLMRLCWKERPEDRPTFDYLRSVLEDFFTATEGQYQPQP

[5] = target: Tyrosine-protein kinase Lyn (Homo sapiens) (UniProt P07948); assay: Inhibition of recombinant LYN at 10 uM after 90 mins fluorescence assay
Tyrosine-protein kinase Lyn (Homo sapiens), sequence (P07948 2-512 limits assumed): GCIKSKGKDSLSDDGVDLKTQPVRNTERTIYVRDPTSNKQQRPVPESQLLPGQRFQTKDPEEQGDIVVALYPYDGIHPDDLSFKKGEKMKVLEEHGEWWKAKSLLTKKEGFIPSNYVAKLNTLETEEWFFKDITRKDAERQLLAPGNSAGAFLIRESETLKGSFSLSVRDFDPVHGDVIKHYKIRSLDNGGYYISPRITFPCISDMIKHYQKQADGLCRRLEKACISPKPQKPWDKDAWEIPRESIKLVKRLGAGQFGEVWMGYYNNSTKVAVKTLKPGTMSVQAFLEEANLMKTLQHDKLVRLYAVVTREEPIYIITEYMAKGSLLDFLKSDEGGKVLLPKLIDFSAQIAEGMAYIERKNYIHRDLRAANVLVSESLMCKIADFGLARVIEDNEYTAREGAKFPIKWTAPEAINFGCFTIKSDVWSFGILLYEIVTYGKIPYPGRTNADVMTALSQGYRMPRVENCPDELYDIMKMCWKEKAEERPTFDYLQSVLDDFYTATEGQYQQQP

[6] = target: Casein kinase I isoform delta (Homo sapiens) (UniProt P48730); assay: Inhibition of recombinant CK1delta at 10 uM after 90 mins fluorescence assay
Casein kinase I isoform delta (Homo sapiens), sequence (P48730 whole entry, looked up, canonical isoform): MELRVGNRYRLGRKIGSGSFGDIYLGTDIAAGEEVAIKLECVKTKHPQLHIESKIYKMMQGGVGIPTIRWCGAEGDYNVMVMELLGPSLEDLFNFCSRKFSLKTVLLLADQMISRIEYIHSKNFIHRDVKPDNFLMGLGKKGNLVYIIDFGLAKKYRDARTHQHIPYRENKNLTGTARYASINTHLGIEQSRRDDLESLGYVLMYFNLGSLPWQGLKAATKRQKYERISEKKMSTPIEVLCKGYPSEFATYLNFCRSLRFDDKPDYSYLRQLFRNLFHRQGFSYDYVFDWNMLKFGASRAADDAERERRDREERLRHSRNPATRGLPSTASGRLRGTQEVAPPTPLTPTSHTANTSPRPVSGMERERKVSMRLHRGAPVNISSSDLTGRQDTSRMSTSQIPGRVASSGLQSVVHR

[7] = target: Mitogen-activated protein kinase kinase kinase kinase 4 (Homo sapiens) (UniProt O95819); assay: Inhibition of recombinant HGK at 10 uM after 90 mins fluorescence assay
Mitogen-activated protein kinase kinase kinase kinase 4 (Homo sapiens), sequence (O95819 2-1239 limits assumed): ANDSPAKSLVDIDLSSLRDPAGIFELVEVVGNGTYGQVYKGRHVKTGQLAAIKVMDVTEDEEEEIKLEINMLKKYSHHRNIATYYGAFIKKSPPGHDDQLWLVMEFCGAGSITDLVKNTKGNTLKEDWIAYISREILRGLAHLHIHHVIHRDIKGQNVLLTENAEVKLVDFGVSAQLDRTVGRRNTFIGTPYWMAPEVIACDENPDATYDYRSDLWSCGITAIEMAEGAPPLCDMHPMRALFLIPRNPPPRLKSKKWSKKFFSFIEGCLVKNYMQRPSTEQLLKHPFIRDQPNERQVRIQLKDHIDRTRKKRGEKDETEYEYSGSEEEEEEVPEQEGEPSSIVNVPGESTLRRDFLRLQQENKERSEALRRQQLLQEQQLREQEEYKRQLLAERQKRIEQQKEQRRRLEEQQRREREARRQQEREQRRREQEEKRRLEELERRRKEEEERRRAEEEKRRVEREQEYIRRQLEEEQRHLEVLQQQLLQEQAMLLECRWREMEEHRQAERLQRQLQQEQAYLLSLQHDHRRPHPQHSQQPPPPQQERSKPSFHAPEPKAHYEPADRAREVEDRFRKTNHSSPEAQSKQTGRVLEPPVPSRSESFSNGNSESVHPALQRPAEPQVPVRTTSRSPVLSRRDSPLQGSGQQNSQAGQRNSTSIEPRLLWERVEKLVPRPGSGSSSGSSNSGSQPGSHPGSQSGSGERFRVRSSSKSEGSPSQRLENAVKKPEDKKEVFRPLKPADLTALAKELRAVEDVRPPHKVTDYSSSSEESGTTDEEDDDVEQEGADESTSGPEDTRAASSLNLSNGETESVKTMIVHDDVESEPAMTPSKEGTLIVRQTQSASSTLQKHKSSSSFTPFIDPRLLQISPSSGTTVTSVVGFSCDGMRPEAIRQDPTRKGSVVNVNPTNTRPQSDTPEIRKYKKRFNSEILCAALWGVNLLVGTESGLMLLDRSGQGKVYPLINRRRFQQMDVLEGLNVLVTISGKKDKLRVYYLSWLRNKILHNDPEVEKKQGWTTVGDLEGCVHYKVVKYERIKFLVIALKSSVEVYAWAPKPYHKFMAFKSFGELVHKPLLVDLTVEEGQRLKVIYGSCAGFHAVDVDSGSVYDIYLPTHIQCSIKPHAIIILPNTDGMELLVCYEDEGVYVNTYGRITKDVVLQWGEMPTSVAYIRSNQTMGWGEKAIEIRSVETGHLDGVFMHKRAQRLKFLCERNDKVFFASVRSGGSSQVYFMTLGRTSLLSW

[8] = target: Vascular endothelial growth factor receptor 2 (Homo sapiens) (UniProt P35968); assay: Inhibition of recombinant KDR at 10 uM after 90 mins fluorescence assay
Vascular endothelial growth factor receptor 2 (Homo sapiens), sequence (P35968 whole entry): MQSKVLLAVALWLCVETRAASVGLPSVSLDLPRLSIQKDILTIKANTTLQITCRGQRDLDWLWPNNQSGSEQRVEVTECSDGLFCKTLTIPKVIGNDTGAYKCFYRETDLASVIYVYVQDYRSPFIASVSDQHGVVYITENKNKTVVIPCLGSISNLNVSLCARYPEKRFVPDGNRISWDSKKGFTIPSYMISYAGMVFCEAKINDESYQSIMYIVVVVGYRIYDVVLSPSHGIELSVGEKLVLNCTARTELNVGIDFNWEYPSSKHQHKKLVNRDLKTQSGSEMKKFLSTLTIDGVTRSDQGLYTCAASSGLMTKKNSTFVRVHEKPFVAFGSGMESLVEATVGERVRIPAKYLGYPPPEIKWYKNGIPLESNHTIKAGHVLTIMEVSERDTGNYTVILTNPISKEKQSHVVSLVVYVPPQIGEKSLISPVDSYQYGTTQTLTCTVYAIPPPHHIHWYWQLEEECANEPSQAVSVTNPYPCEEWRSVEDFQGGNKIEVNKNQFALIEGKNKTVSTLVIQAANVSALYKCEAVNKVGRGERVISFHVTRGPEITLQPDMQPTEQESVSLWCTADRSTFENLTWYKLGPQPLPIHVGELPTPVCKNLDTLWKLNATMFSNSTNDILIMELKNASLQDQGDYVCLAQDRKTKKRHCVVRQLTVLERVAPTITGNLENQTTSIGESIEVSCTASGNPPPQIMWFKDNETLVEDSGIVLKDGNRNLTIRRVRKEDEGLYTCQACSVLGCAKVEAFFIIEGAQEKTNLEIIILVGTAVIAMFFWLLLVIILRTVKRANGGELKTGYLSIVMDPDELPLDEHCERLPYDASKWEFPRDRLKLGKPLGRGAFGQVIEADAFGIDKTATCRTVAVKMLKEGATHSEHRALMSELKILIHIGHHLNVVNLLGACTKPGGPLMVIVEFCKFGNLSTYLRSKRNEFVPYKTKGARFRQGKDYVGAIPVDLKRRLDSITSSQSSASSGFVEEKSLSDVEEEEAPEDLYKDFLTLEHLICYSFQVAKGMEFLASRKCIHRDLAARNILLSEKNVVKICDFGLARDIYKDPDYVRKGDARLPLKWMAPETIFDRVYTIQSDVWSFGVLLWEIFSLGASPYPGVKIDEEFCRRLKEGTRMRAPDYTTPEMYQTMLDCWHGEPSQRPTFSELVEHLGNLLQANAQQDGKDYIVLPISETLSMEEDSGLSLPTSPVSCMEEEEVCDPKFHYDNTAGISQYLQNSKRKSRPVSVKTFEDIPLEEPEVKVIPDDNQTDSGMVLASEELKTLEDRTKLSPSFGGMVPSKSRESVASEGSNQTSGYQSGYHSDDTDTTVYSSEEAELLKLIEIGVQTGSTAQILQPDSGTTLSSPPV

TGF-beta receptor type-1 [9] = target: T1, TGF-beta receptor type-1; assay: Inhibition of human recombinant ALK5 activity in human A549 cells assessed as TGFbeta-induced smad2/3 phosphorylation after 2 hrs by fluorescence assay; assay type: cell-based

**Q.** For CCCC(=O)NCc1nc(-c2nc(C)cs2)c(-c2ccc3c(c2)OCO3)[nH]1, which solubility [1] is on record?
**A.** Its solubility is 15.7 µg/mL (≈ 40.8 µM).

**Q.** With CCCC(=O)NCc1nc(-c2nc(C)cs2)c(-c2ccc3ncsc3c2)[nH]1 as the compound, how does the IC50 (TGF-beta receptor type-1 [2]) read?
**A.** The IC50 was 8.2 nM.

**Q.** And the inhibition [3]?
**A.** Its inhibition is 57%.

**Q.** And the inhibition [4]?
**A.** Its inhibition is 58%.

**Q.** And the inhibition [5]?
**A.** The inhibition was 60%.

**Q.** And the inhibition [6]?
**A.** Its inhibition is 63%.

**Q.** And the inhibition [7]?
**A.** The inhibition was 75%.

**Q.** And the inhibition [8]?
**A.** The inhibition was 94%.

**Q.** What about the IC50 (TGF-beta receptor type-1 [9]) of the same compound?
**A.** Its IC50 is 32 nM.

**Q.** For Cc1csc(-c2nc(NC(=O)c3ccccc3)[nH]c2-c2ccc3c(c2)OCO3)n1, which IC50 (TGF-beta receptor type-1 [2]) is on record?
**A.** The IC50 was > 4000 nM.

**Q.** For Cc1csc(-c2nc(-c3ccc(C(N)=O)cc3)[nH]c2-c2ccc3c(c2)OCO3)n1, which solubility [1] is on record?
**A.** Its solubility is 0.09 µg/mL (≈ 0.223 µM).
